Test results: PubChem BioAssay (NCI)
Several values for one entry are separate records, joined by “and”; a condition that tells them apart may be missing. Equal entries are not always repeated.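 Grown in 96-well plates, cells were treated for 48 hours with each compound at five concentrations. Insufficient inhibition: endpoint recorded as highest concentration tested. The concentration for 50% growth inhibition is given as GI50. TGI: total growth inhibition.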

Legend:
Assay in all cases: NCI-60 cell line screen, 48 h
CCRF-CEM leukemia = system: CCRF-CEM leukemia
NCI-H522 lung = system: NCI-H522 lung
SF-295 CNS = system: SF-295 CNS
IGROV1 ovarian = system: IGROV1 ovarian
MDA-MB-231 breast = system: MDA-MB-231 breast
A498 renal = system: A498 renal
OVCAR-3 ovarian = system: OVCAR-3 ovarian
SF-268 CNS = system: SF-268 CNS
HS 578T breast = system: HS 578T breast
LOX IMVI melanoma = system: LOX IMVI melanoma

Structure (SMILES): O=C(Cn1ccnc1[N+](=O)[O-])N(CCO)CCO
- GI50 (CCRF-CEM leukemia): > 580 µM
- TGI (CCRF-CEM leukemia): > 580 µM
- GI50 (NCI-H522 lung): > 1250 µM
- TGI (NCI-H522 lung): > 1250 µM
- GI50 (SF-295 CNS): > 185 µM
- TGI (SF-295 CNS): > 753 µM
- GI50 (IGROV1 ovarian): > 1250 µM
- TGI (IGROV1 ovarian): > 1250 µM
- TGI (MDA-MB-231 breast): > 250 µM
- GI50 (A498 renal): > 250 µM
- TGI (A498 renal): > 1250 µM
- GI50 (OVCAR-3 ovarian): > 312 µM
- TGI (OVCAR-3 ovarian): > 828 µM
- GI50 (SF-268 CNS): > 1250 µM
- TGI (SF-268 CNS): > 1250 µM
- TGI (HS 578T breast): > 250 µM
- GI50 (LOX IMVI melanoma): > 250 µM
- TGI (LOX IMVI melanoma): > 1250 µM

Structure (SMILES): Cn1ncc2c(Nc3ccc(Br)cc3)nc(Nc3ccc(Br)cc3)nc21
- GI50 (CCRF-CEM leukemia): 3.23 µM
- TGI (CCRF-CEM leukemia): 22 µM
- GI50 (NCI-H522 lung): 3.44 µM
- TGI (NCI-H522 lung): 15.7 µM
- GI50 (SF-295 CNS): 1.82 µM
- TGI (SF-295 CNS): 4.03 µM
- GI50 (IGROV1 ovarian): 3.22 µM
- TGI (IGROV1 ovarian): 16.7 µM
- GI50 (MDA-MB-231 breast): 1.8 µM
- TGI (MDA-MB-231 breast): 3.68 µM
- GI50 (A498 renal): 2.68 µM
- TGI (A498 renal): 9.9 µM
- GI50 (OVCAR-3 ovarian): 3.95 µM
- TGI (OVCAR-3 ovarian): 12.3 µM
- GI50 (SF-268 CNS): 5.11 µM
- TGI (SF-268 CNS): 15.8 µM
- GI50 (HS 578T breast): 2.61 µM
- TGI (HS 578T breast): 9.59 µM
- GI50 (LOX IMVI melanoma): 1.77 µM
- TGI (LOX IMVI melanoma): 3.36 µM

Structure (SMILES): Nc1ccccc1C#C/C=C\C#Cc1ccc(F)cc1F
- GI50 (CCRF-CEM leukemia): 0.444 µM
- TGI (CCRF-CEM leukemia): 10.9 µM
- GI50 (NCI-H522 lung): 13.8 µM
- TGI (NCI-H522 lung): 35.2 µM
- GI50 (SF-295 CNS): 7.12 µM
- TGI (SF-295 CNS): 24.8 µM
- GI50 (IGROV1 ovarian): 12.7 µM
- TGI (IGROV1 ovarian): 40.7 µM
- GI50 (MDA-MB-231 breast): 15.1 µM
- TGI (MDA-MB-231 breast): 33.3 µM
- GI50 (A498 renal): 15.8 µM
- TGI (A498 renal): 31.9 µM
- GI50 (OVCAR-3 ovarian): 6.2 µM
- TGI (OVCAR-3 ovarian): 21.4 µM
- GI50 (SF-268 CNS): 5.95 µM
- TGI (SF-268 CNS): 25.4 µM
- GI50 (HS 578T breast): 13.2 µM
- TGI (HS 578T breast): 30.5 µM
- GI50 (LOX IMVI melanoma): 6.41 µM
- TGI (LOX IMVI melanoma): 19.9 µM

Structure (SMILES): CN(C(=O)C1CCCCC1)c1ccccc1I(=O)=O
- GI50 (CCRF-CEM leukemia): 17.6 µM
- TGI (CCRF-CEM leukemia): 38 µM
- GI50 (NCI-H522 lung): 16.3 µM
- TGI (NCI-H522 lung): 30.2 µM
- GI50 (SF-295 CNS): 36.5 µM
- TGI (SF-295 CNS): > 100 µM
- GI50 (IGROV1 ovarian): 52.2 µM
- TGI (IGROV1 ovarian): > 100 µM
- GI50 (MDA-MB-231 breast): 70 µM
- TGI (MDA-MB-231 breast): > 100 µM
- GI50 (A498 renal): 52.1 µM
- TGI (A498 renal): > 100 µM
- GI50 (OVCAR-3 ovarian): 30.5 µM
- TGI (OVCAR-3 ovarian): > 100 µM
- GI50 (SF-268 CNS): 36.8 µM
- TGI (SF-268 CNS): > 100 µM
- GI50 (HS 578T breast): 52.9 µM
- TGI (HS 578T breast): > 100 µM
- GI50 (LOX IMVI melanoma): 40.2 µM
- TGI (LOX IMVI melanoma): > 100 µM

Structure (SMILES): COc1ccc(OC)c(/C=C/[N+](=O)[O-])c1
- GI50 (CCRF-CEM leukemia): 1.18 µM
- TGI (CCRF-CEM leukemia): 14.6 µM and 5.38 µM
- TGI (NCI-H522 lung): 2.96 µM and 4.78 µM
- GI50 (SF-295 CNS): 3.09 µM
- TGI (SF-295 CNS): 9.46 µM and 11.4 µM
- GI50 (IGROV1 ovarian): 2 µM and 3.79 µM
- TGI (IGROV1 ovarian): 6.97 µM and 8.79 µM
- TGI (MDA-MB-231 breast): 5.32 µM
- GI50 (A498 renal): 3.26 µM
- TGI (A498 renal): 8.42 µM and 8.29 µM
- TGI (OVCAR-3 ovarian): 4.9 µM and 3.31 µM
- TGI (SF-268 CNS): 10 µM and 12.3 µM
- TGI (HS 578T breast): 14.6 µM
- GI50 (LOX IMVI melanoma): 1.09 µM
- TGI (LOX IMVI melanoma): 12.6 µM and 3.78 µM
